Reference: US20250051301A1, “MUTANT IDH1 AND IDH2 INHIBITOR AND APPLICATION THEREOF” (Betta Pharmaceuticals Co., Ltd, priority 2022, published 2025)
Converted amounts (≈) assume the structure as drawn.

Key:
[1] = Pharmacokinetic detection in dogs; type: in vivo; conditions: beagle dogs
Protocol: Adult beagle dogs (6-12 months of age) received a single dose of the compounds to be tested via intravenous administration (IV) or oral gavage administration (PO), respectively. In the IV single dose, 5% DMSO+5% Solutol+90% physiological saline was used as the excipient; the intravenous administration was carried out at a dose of 1 mg/kg (2 females and 2 males); and the venous blood collection time was 5 min, 15 min, 0.5 h, 1 h, 2 h, 4 h, 6 h, 8 h, 10 h and 24 h. In the PO single dose, 5% DMSO+5% Solutol+90% purified water was used as the excipient; the oral gavage administration was carried out at a dose of 5 mg/kg (2 females and 2 males); and the blood collection time was 15 min, 0.5 h, 1 h, 2 h, 4 h, 6 h, 8 h, 10 h and 24 h. Blood samples were collected in tubes containing EDTA anticoagulants and centrifuged at 4000 rpm at 4° C. for 10 min, and the supernatants were transferred to centrifuge tubes and stored at −20° C. For the detection, 30 μL of the plasma supernatant sample was taken, and 200 μL of an internal standard solution was added. The mixture was centrifuged at 3000 rpm for 10 minutes. Then, 100 μL of the supernatant solution was diluted with water at a 1:1 ratio and then injected with an injection volume of 5 μL. The concentration of the compounds to be tested in the plasma sample was analyzed by liquid chromatography-tandem mass spectrometry (LC-MS/MS). Plasma concentration-time data for individual animals were analyzed using Sciex Analyst software. The non-compartment model was introduced into the concentration analysis, and pharmacokinetic parameters (Cl_obs, Cmax and AUClast) of the compounds to be tested were calculated using WinNonlin (version 4.1; pHarsight) software.

[2] = Kinetic solubility experiment; type: physicochemical; conditions: buffer, kinetic from dmso stock
Protocol: 1. Preparation of Solutions/Buffers at Different pH Values
• Solution A: 17.42 g of K2HPO4 was weighed and dissolved in 1 L of ultrapure water. • Solution B: 13.65 g of KH2PO4 was weighed and dissolved in 1 L of ultrapure water.
A certain mass of substance to be tested was accurately weighed and dissolved in a certain volume of DMSO to obtain a 20 mM or 10 mM stock solution.
An acetonitrile stopping solution containing 1 ng/mL of labetalol and glibenclamide was prepared.
3. Incubation System (n=3)
The above-mentioned solutions were placed in a 96-well plate, respectively and shaken in a thermostatic oscillator for 2 hours (37° C., 150 rpm).
4. Control solution: 200 μM control solution of the substance to be tested was prepared in methanol. 5. Sample treatment
At a predetermined time, the 96-well plate was placed in a centrifuge and centrifuged at 4100 rpm for 15 minutes. A certain volume of the supernatant and a certain volume of control solution were respectively taken into 19 times volume of water containing 70% acetonitrile that has been previously added. The mixture was uniformly mixed, diluted 20 times with an internal standard stop solution and shaken in a thermostatic oscillator at 700 rpm at room temperature for 5 min. Further dilution may be necessary depending on the sensitivity of the compound, and sample analysis was performed by LC-MS/MS.
The ratio of compound peak area to internal standard peak area was used for calculation. According to the concentration relationship between the compound in the buffer and the control solution, the calculated concentration was the kinetic solubility, and the calculation formula was as follows:
Solubility(μg/mL)=mass spectral peak area of the compound to be tested in buffers at different pHs×200μM×molecular weight of the compound to be tested(MW)/mass spectral peak area of the compound to be tested in methanol/1000;

[3] = both sexes, dog, plasma, PO, 5 mg/kg

Cl_obs ([1]; IV, 1 mg/kg): 24.2 mL/min/kg
AUC(0-t) ([1]; both sexes, dog, plasma, IV, 1 mg/kg): 653 ng·h/mL
AUC(0-t) [1, 3]: 2160 ng·h/mL
Cmax [1, 3]: 658 ng/mL
solubility at 2 h ([2]; aqueous buffer, pH = 3.0, 37° C.): 1.6 µg/mL (≈ 3.86 µM)
solubility at 2 h ([2]; aqueous buffer, pH = 5.0, 37° C.): 1.4 µg/mL (≈ 3.38 µM)
solubility at 2 h ([2]; aqueous buffer, pH = 7.4, 37° C.): 0.8 µg/mL (≈ 1.93 µM)
solubility at 2 h ([2]; simulated gastric fluid, pH = 1.0, 37° C.): 39.6 µg/mL (≈ 95.5 µM)
SMILES: C[C@@H](Nc1nc(N[C@H](C)C(F)(F)F)nc(-c2cccc(Cl)n2)n1)C(F)(F)F [compound 1, reference compound]
